Data from ChEMBL document CHEMBL5625183, “Discovery of a novel dual-target inhibitor of CDK12 and PARP1 that induces synthetic lethality for treatment of triple-negative breast cancer” (Eur J Med Chem, 2023).
Where “and” joins values, the source holds several entries; their conditions need not be identical. Equal values may be shown once. Calls of active or inactive are those of the source. No cut-off for these calls is given here.

How the values were obtained:
MDA-MB-231 [1] = assay: Antiproliferative activity against human MDA-MB-231 cells assessed as inhibition of cell growth incubated for 48 hrs by MTT assay; format: functional, cell-based; conditions: MDA-MB-231, 48 h
[2] = biological target: T1, Cyclin-dependent kinase 12 (Homo sapiens, UniProt Q9NYV4); assay: Inhibition of CDK12 (unknown origin) at 1 uM in presence of ATP by kinase-glo plus luminescent assay relative to control
Target sequence in this assay (Q9NYV4 whole entry, looked up): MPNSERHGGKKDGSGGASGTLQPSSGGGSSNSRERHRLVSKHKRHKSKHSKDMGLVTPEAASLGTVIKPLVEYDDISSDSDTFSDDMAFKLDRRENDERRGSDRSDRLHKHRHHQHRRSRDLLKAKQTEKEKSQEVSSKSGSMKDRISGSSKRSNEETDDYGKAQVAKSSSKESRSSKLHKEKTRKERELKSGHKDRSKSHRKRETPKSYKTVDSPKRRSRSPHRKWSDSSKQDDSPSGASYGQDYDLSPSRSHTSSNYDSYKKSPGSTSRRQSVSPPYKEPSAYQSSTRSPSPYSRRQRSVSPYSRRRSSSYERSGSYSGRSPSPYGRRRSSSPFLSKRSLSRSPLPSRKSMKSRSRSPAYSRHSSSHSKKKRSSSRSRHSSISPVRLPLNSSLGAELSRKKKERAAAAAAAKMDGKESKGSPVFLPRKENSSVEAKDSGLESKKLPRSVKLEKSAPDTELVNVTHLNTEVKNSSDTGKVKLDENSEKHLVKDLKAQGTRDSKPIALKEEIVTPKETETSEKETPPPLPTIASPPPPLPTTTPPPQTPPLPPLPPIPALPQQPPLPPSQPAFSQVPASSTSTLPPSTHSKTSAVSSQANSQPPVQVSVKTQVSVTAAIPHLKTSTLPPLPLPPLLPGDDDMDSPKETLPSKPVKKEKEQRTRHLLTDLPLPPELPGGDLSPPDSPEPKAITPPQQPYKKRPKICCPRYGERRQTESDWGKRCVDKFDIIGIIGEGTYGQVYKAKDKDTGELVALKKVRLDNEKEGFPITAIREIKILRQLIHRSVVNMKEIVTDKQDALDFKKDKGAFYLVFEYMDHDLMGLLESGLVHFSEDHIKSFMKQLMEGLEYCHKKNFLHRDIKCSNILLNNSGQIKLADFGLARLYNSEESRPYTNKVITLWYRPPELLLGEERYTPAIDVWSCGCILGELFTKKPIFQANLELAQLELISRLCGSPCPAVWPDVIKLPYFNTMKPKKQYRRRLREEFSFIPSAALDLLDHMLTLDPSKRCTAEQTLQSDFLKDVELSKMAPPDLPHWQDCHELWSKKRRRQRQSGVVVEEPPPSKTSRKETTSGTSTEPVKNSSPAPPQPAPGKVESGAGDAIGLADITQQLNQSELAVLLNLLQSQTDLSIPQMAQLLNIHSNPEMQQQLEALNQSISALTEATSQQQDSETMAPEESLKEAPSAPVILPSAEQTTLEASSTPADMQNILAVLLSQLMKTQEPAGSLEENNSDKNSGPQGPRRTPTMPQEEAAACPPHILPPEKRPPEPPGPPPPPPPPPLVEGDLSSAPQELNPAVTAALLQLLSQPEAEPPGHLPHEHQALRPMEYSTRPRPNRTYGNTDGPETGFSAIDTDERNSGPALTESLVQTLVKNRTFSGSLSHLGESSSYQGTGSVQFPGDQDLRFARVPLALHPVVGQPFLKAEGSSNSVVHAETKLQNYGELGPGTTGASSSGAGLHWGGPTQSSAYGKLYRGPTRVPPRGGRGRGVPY

MDA-MB-436 [3] = assay: Antiproliferative activity against human MDA-MB-436 cells assessed as inhibition of cell growth incubated for 24 hrs by MTT assay; format: functional, cell-based
MDA-MB-231 [4] = assay: Synergistic antiproliferative activity against human MDA-MB-231 cells in presence of Olaparib incubated for 24 hrs by MTT assay; format: functional, cell-based
MDA-MB-468 [5] = assay: Antiproliferative activity against human MDA-MB-468 cells assessed as inhibition of cell growth incubated for 48 hrs by MTT assay; format: functional, cell-based; conditions: MDA-MB-468, 48 h
MDA-MB-436 [6] = assay: Antiproliferative activity against human MDA-MB-436 cells assessed as inhibition of cell growth incubated for 72 hrs by MTT assay; format: functional, cell-based; conditions: MDA-MB-436, 72 h
MDA-MB-231 [7] = assay: cells; conditions: Homo sapiens, MDA-MB-231, 72 h
MDA-MB-468 [8] = assay: Antiproliferative activity against human MDA-MB-468 cells assessed as inhibition of cell growth incubated for 72 hrs by MTT assay; format: functional, cell-based; conditions: MDA-MB-468, 72 h
MDA-MB-436 [9] = assay: Antiproliferative activity against human MDA-MB-436 cells assessed as inhibition of cell growth incubated for 48 hrs by MTT assay; format: functional, cell-based; conditions: MDA-MB-436, 48 h
MDA-MB-468 [10] = assay: Antiproliferative activity against human MDA-MB-468 cells assessed as inhibition of cell growth incubated for 24 hrs by MTT assay; format: functional, cell-based; conditions: MDA-MB-468, 24 h
MDA-MB-231 [11] = assay: Antiproliferative activity against human MDA-MB-231 cells assessed as inhibition of cell growth incubated for 24 hrs by MTT assay; format: functional, cell-based; conditions: MDA-MB-231, 24 h
[12] = biological target: Poly [ADP-ribose] polymerase 1 (Homo sapiens, UniProt P09874); assay: Inhibition of PARP1 (unknown origin) incubated for 1 hr by ELISA analysis
[13] = biological target: T1, Cyclin-dependent kinase 12; assay: Inhibition of CDK12 (unknown origin) in presence of ATP by kinase-glo plus luminescent assay
Target sequence in this assay (Q9NYV4 whole entry): as the sequence (Q9NYV4 whole entry, looked up) above

[14] = biological target: Poly [ADP-ribose] polymerase 2 (Homo sapiens, UniProt Q9UGN5); assay: Inhibition of PARP2 (unknown origin) incubated for 1 hr by ELISA analysis
[15] = Metabolic stability in human liver microsome assessed as half life in presence of NADPH incubated upto 60 mins by LC-MS/MS analysis; format: ADME; conditions: liver microsomes
[16] = Metabolic stability in BALB/c mouse liver microsome assessed as intrinsic clearance in presence of NADPH incubated upto 60 mins by LC-MS/MS analysis; format: ADME; conditions: liver microsomes, read-out: CLH
[17] = Metabolic stability in human liver microsome assessed as intrinsic clearance in presence of NADPH incubated upto 60 mins by LC-MS/MS analysis; format: ADME; conditions: liver microsomes, read-out: CLH
[18] = Metabolic stability in BALB/c mouse liver microsome assessed as half life in presence of NADPH incubated upto 60 mins by LC-MS/MS analysis; format: ADME; conditions: liver microsomes

Sequence of Poly [ADP-ribose] polymerase 2 (Q9UGN5 whole entry): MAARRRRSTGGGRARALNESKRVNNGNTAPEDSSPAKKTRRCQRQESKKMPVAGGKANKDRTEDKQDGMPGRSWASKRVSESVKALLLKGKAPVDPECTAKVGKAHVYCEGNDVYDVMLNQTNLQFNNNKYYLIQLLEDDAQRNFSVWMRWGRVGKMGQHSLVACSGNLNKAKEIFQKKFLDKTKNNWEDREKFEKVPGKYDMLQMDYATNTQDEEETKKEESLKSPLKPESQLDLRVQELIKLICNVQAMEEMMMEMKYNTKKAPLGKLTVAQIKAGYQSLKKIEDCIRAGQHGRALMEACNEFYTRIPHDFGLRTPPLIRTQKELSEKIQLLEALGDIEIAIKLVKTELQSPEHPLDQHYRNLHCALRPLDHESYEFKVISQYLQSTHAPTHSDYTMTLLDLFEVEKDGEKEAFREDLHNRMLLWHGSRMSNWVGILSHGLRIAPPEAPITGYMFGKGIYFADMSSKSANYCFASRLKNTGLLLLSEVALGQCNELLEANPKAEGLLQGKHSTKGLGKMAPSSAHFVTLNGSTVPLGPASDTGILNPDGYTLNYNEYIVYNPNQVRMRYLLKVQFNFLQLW
Sequence of Poly [ADP-ribose] polymerase 1 (P09874 whole entry): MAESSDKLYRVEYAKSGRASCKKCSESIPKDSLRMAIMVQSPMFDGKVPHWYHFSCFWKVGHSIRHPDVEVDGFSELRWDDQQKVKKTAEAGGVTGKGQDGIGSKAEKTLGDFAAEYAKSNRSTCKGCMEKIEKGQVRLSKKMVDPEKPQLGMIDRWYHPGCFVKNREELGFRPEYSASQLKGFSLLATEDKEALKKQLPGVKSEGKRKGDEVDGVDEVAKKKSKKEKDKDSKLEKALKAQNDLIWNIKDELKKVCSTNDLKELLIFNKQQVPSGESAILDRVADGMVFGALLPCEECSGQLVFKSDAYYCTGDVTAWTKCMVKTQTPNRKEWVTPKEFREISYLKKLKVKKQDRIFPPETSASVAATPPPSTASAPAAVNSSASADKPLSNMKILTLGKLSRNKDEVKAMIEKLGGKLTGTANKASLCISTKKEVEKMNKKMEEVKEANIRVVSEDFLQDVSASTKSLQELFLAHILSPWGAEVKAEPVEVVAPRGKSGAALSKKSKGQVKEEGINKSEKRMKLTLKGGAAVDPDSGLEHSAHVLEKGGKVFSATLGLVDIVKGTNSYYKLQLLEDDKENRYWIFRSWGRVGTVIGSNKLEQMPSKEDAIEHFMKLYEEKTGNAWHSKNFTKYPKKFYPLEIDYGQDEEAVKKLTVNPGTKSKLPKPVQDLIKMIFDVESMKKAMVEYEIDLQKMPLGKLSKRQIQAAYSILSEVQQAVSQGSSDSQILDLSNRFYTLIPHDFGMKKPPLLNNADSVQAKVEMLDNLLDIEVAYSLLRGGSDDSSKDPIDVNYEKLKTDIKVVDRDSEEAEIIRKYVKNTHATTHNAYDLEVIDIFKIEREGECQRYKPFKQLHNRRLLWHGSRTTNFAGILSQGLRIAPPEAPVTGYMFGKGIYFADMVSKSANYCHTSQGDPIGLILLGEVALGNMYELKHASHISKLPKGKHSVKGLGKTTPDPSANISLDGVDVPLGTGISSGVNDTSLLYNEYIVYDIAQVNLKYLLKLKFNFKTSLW

CN(C)C/C=C/C(=O)Nc1ccc(C(=O)N2CCC[C@@H](Nc3ncc(Cl)c(-c4c[nH]c5ccccc45)n3)C2)cc1
IC50 (MDA-MB-231 [1]): 17.9 µM | inhibition [2]: 98.6% | IC50 (MDA-MB-436 [3]; mda-mb-436): 14.3 µM and 4.6 µM | Activity (MDA-MB-231 [4]): Active | IC50 (MDA-MB-468 [5]): 14.4 µM | IC50 (MDA-MB-436 [6]): 6.4 µM | IC50 (MDA-MB-231 [7]): 7.1 µM | IC50 (MDA-MB-468 [8]): 5.8 µM | IC50 (MDA-MB-436 [9]): 18.1 µM

O=C(c1cc(Cc2n[nH]c(=O)c3ccccc23)ccc1F)N1CCN(C(=O)C2CC2)CC1 [OLAPARIB]
IC50 (MDA-MB-231 [1]): 1.7 µM | IC50 (MDA-MB-468 [10]): 3.4 µM | inhibition [2]: 7% | IC50 (MDA-MB-436 [3]; Homo sapiens, MDA-MB-436, 24 h): 4.6 µM | IC50 (MDA-MB-231 [11]): 3.5 µM | IC50 (MDA-MB-468 [5]): 1.4 µM | IC50 (MDA-MB-436 [6]): 0.7 µM | IC50 (MDA-MB-231 [7]): 0.8 µM | IC50 (MDA-MB-468 [8]): 0.6 µM | IC50 (MDA-MB-436 [9]): 1.5 µM

NC(=O)c1cccc2[nH]c(NC(=O)c3cccc(C(=O)N4CCC(Nc5ncc(Br)cn5)CC4)c3)nc12
IC50 [12]: 37 nM | IC50 (MDA-MB-468 [10]): 12.4 µM | inhibition [2]: 75.4% | IC50 (MDA-MB-436 [3]; Homo sapiens, MDA-MB-436, 24 h): 11.1 µM | IC50 (MDA-MB-231 [11]): 10.2 µM | IC50 [13]: 344 nM | IC50 [14]: 32 nM

NC(=O)c1cccc2[nH]c(NC(=O)c3cccc(C(=O)N4CCC(Nc5ncc(C(F)(F)F)cn5)CC4)c3)nc12
IC50 [12]: 167 nM | IC50 (MDA-MB-468 [10]): 10.5 µM | inhibition [2]: 79.4% | IC50 (MDA-MB-436 [3]; Homo sapiens, MDA-MB-436, 24 h): 11.2 µM | IC50 (MDA-MB-231 [11]): 10.3 µM | IC50 [13]: 269 nM | IC50 [14]: 131 nM

O=C(c1ccc(F)cc1)C1CCN(CCn2c(=O)[nH]c3ccccc3c2=O)CC1 [KETANSERIN]
half-life [15]: 33.6 min | CLint scaled [16]: 185 mL/min/kg | CLint scaled [17]: 47.7 mL/min/kg | half-life [18]: 29.4 min

NC(=O)c1cccc2[nH]c(NC(=O)c3cccc(C(=O)N4CCC(Nc5ncc(Cl)cn5)CC4)c3)nc12
IC50 [12]: 43 nM | IC50 (MDA-MB-468 [10]): 14.2 µM | inhibition [2]: 68.3% | IC50 (MDA-MB-436 [3]; Homo sapiens, MDA-MB-436, 24 h): 12.6 µM | IC50 (MDA-MB-231 [11]): 15.6 µM | IC50 [13]: 554 nM | IC50 [14]: 35 nM

NC(=O)c1cccc2[nH]c(NC(=O)c3cccc(C(=O)N4CCC(Nc5ncc(F)cn5)CC4)c3)nc12
IC50 [12]: 71 nM | IC50 (MDA-MB-468 [10]): > 30 µM | inhibition [2]: 24.3% | IC50 (MDA-MB-436 [3]; Homo sapiens, MDA-MB-436, 24 h): 28.7 µM | IC50 (MDA-MB-231 [11]): > 30 µM | IC50 [13]: > 10000 nM | IC50 [14]: 65 nM
